Assay [1] has as its system 22Rv1 Cell. The experiment in a line: 22RV1 cell growth inhibition, CellTiter-Glo, 72 h. The format is cell-based. The conditions noted are these: 22RV1 cells, 72 h culture. In outline:
(§1)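 Cells seeded at 5×10^3/well overnight in RPMI-1640/10% FBS, then exposed to compound (0.5% DMSO final) for 72 h at 37 °C.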
For orientation: In ATP-based viability assays light output follows the ATP content of the culture.

Assay [2] relates to vCap Cell. The experiment in a line: vCap cell growth inhibition, CellTiter-Glo, 72 h. The class given is cell-based. The settings on record: vCap cells, 72 h culture. The gist of the method:
as §1

The pIC50 is the IC50 on a negative log10 scale, so that one unit is a factor of ten. The low end stands for a large IC50, the high end for a small IC50.

pIC50: −log10 of the molar value. Some results are limits rather than exact numbers.

In the case of `COC(=O)N1Cc2cc(C3CCC(OC)CC3)cc(N3CCCc4cc(-c5cnn(C)c5)c(C(F)F)cc43)c2C1` (stereo not drawn) [Compound M001203], the pIC50 in assay [1] (Homo sapiens, 22Rv1, 72 h) was < 6.00; in assay [2] (Homo sapiens, VCaP, 72 h) it was < 6.00.

`COC(=O)N1Cc2cc(C3CCC(OC)CC3)cc(N3CCCc4cc(-c5cnn(C)c5)c(C(F)F)cc43)c2C1` (stereo not drawn) [Compound M001204]: the pIC50 in assay [1] and in assay [2] was < 6.00 each time.

Regarding `CC(=O)N1CCc2cccc(N3CCCc4cc(-c5cnn(C)c5)c(C(F)F)cc43)c2C1` [Compound M001207], the pIC50 in assay [1] (Homo sapiens, 22Rv1, 72 h) is < 6.00; in assay [2] (Homo sapiens, VCaP, 72 h) it was < 6.00.

As to `CC(=O)N1CCc2cc(Cl)cc(N3CCCc4cc(-c5cnn(C)c5)c(C(F)F)cc43)c2C1` [Compound M001208], the pIC50 is < 6.00 in assay [1] (Homo sapiens, 22Rv1, 72 h) and < 6.00 in assay [2] (Homo sapiens, VCaP, 72 h).

Turning to `CNC(=O)N1CCc2cc(Cl)cc(N3CCCc4cc(-c5cnn(C)c5)c(C(F)F)cc43)c2C1` [Compound M001209], the pIC50 was < 6.00 in assay [1] (Homo sapiens, 22Rv1, 72 h) and < 6.00 in assay [2] (Homo sapiens, VCaP, 72 h).

`COC(=O)N1CCCc2cccc(N3CCCc4cc(-c5cnn(C)c5)c(C(F)F)cc43)c2C1` [Compound M001210]: the pIC50 in assay [1] (Homo sapiens, 22Rv1, 72 h) is < 6.00; in assay [2] (Homo sapiens, VCaP, 72 h), < 6.00.

Turning to `CNC(=O)N1CCCc2cccc(N3CCCc4cc(-c5cnn(C)c5)c(C(F)F)cc43)c2C1` [Compound M001211], the pIC50 is < 6.00 in assay [1] (Homo sapiens, 22Rv1, 72 h) and < 6.00 in assay [2] (Homo sapiens, VCaP, 72 h).

As for `CC(=O)N1CCCc2cccc(N3CCCc4cc(-c5cnn(C)c5)c(C(F)F)cc43)c2C1` [Compound M001212], the pIC50 is < 6.00 in assay [1] (Homo sapiens, 22Rv1, 72 h) and < 6.00 in assay [2] (Homo sapiens, VCaP, 72 h).

For `Cn1cc(-c2cc3c(cc2C(F)F)N(c2cccc4c2CN(C(N)=O)CCC4)CCC3)cn1` [Compound M001213], the pIC50 is < 6.00 in assay [1] (Homo sapiens, 22Rv1, 72 h) and < 6.00 in assay [2] (Homo sapiens, VCaP, 72 h).

As for `Cn1cc(-c2cc3c(cc2C(F)F)N(c2cccc4c2CN(C(=O)C2CC2)CCC4)CCC3)cn1` [Compound M001214], the pIC50 in assay [1] (Homo sapiens, 22Rv1, 72 h) was < 6.00; in assay [2] (Homo sapiens, VCaP, 72 h), < 6.00.

On to `Cn1cc(-c2cc3c(cc2C(F)F)N(c2cccc4c2CNC(=O)CC4)CCC3)cn1` [Compound M001215, 9-[7-(difluoromethyl)-6-(1-methylpyrazol-4-yl)-3,4-dihydro-2H-quinolin-1-yl]-1,2,4,5-tetrahydro-2-benzazepin-3-one], for which the pIC50 in assay [1] (Homo sapiens, 22Rv1, 72 h) was < 6.00; in assay [2] (Homo sapiens, VCaP, 72 h), < 6.00.

For the molecule `CC(=O)N1Cc2cc(C3CCNC(=O)C3)cc(N3CCCc4cc(-c5cnn(C)c5)ccc43)c2C1` (stereo not drawn) [Compound M001218], the pIC50 was < 6.00 in assay [1] (Homo sapiens, 22Rv1, 72 h) and < 6.00 in assay [2] (Homo sapiens, VCaP, 72 h).

For the molecule `CC(=O)N1Cc2cc(C3CCNC(=O)C3)cc(N3CCCc4cc(-c5cnn(C)c5)c(C5CC5)cc43)c2C1` (stereo not drawn) [Compound M001219, 4-{2-acetyl-7-[7-cyclopropyl-6-(1-methylpyrazol-4-yl)-3,4-dihydro-2H-quinolin-1-yl]-1,3-dihydroisoindol-5-yl}piperidin-2-one], the pIC50 in assay [1] (Homo sapiens, 22Rv1, 72 h) was > 6.00; in assay [2] (Homo sapiens, VCaP, 72 h), > 6.00.

For `CCN1CC(c2cc3c(c(N4CCCc5cc(-c6cnn(C)c6)c(C(F)F)cc54)c2)CN(C(=O)NC)CC3)CCC1=O` (stereo not drawn) [Compound M001221], the pIC50 is > 6.00 in assay [1] (Homo sapiens, 22Rv1, 72 h) and > 6.00 in assay [2] (Homo sapiens, VCaP, 72 h).

For `CNC(=O)N1CCc2cc(C3CCC(=O)N(CCOC)C3)cc(N3CCCc4cc(-c5cnn(C)c5)c(C(F)F)cc43)c2C1` (stereo not drawn) [Compound M001222], the pIC50 in assay [1] (Homo sapiens, 22Rv1, 72 h) was > 6.00; in assay [2] (Homo sapiens, VCaP, 72 h), > 6.00.

Take `CCN1CC(c2cc3c(c(N4CCCc5cc(-c6cnn(C)c6)c(C(F)F)cc54)c2)CN(C(C)=O)C3)CCC1=O` (stereo not drawn) [Compound M001224]: the pIC50 in assay [1] (Homo sapiens, 22Rv1, 72 h) was > 6.00; in assay [2] (Homo sapiens, VCaP, 72 h), > 6.00.

Regarding `COCCN1CC(c2cc3c(c(N4CCCc5cc(-c6cnn(C)c6)c(C(F)F)cc54)c2)CN(C(C)=O)C3)CCC1=O` (stereo not drawn) [Compound M001225], the pIC50 was < 6.00 in assay [1] (Homo sapiens, 22Rv1, 72 h) and > 6.00 in assay [2] (Homo sapiens, VCaP, 72 h).

On to `CCOC(=O)N1CCc2cc(Cl)cc(N3CCCc4cc(-c5cnn(C)c5)c(C(F)F)cc43)c2C1` [Compound M001228], for which the pIC50 in assay [1] (Homo sapiens, 22Rv1, 72 h) was < 6.00; in assay [2] (Homo sapiens, VCaP, 72 h) it was < 6.00.

As to `CCNC(=O)N1CCc2cc(Cl)cc(N3CCCc4cc(-c5cnn(C)c5)c(C(F)F)cc43)c2C1` [Compound M001229], the pIC50 is < 6.00 in assay [1] (Homo sapiens, 22Rv1, 72 h) and < 6.00 in assay [2] (Homo sapiens, VCaP, 72 h).

In the case of `CNC(=O)N1CCc2cc(C3CCC(=O)N(CC(C)(C)O)C3)cc(N3CCCc4cc(-c5cnn(C)c5)c(C(F)F)cc43)c2C1` (stereo not drawn) [Compound M001230], the pIC50 is > 6.00 in assay [1] (Homo sapiens, 22Rv1, 72 h) and > 6.00 in assay [2] (Homo sapiens, VCaP, 72 h).

Turning to `CC(=O)N1Cc2cc(C3CCC(=O)N(CC(C)(C)O)C3)cc(N3CCCc4cc(-c5cnn(C)c5)c(C(F)F)cc43)c2C1` (stereo not drawn) [Compound M001231], the pIC50 is > 6.00 in assay [1] (Homo sapiens, 22Rv1, 72 h) and > 6.00 in assay [2] (Homo sapiens, VCaP, 72 h).

`CNC(=O)N1CCc2cc([C@H]3CCC(=O)N(C)C3)cc(N3CCCc4cc(-c5cnn(C)c5)c(C(F)F)cc43)c2C1` [Compound M001234]: the negative logarithm of the IC50 (pIC50) is > 6.00 in assay [1] (Homo sapiens, 22Rv1, 72 h) and > 6.00 in assay [2] (Homo sapiens, VCaP, 72 h).

Regarding `CNC(=O)N1CCc2cc([C@@H]3CCC(=O)N(C)C3)cc(N3CCCc4cc(-c5cnn(C)c5)c(C(F)F)cc43)c2C1` [Compound M001235], the negative logarithm of the IC50 (pIC50) is > 6.00 in assay [1] (Homo sapiens, 22Rv1, 72 h) and > 6.00 in assay [2] (Homo sapiens, VCaP, 72 h).

As to `Cn1cc(-c2cc3c(cc2C(F)F)N(c2cccc4c2NC(=O)CCC4)CCC3)cn1` [Compound M001236, 9-[7-(difluoromethyl)-6-(1-methylpyrazol-4-yl)-3,4-dihydro-2H-quinolin-1-yl]-1,3,4,5-tetrahydro-1-benzazepin-2-one], the pIC50 is < 6.00 in assay [1] (Homo sapiens, 22Rv1, 72 h) and < 6.00 in assay [2] (Homo sapiens, VCaP, 72 h).

For the molecule `CNC(=O)N1CCc2cc(-c3ccc(=O)n(C)c3)cc(Nc3cc(C(F)F)c(-c4cnn(C)c4)cc3F)c2C1` [Compound M001239, 8-((5-(difluoromethyl)-2-fluoro-4-(1-methyl-1H-pyrazol-4-yl)phenyl)amino)-N-methyl-6-(1-methyl-6-oxo-1,6-dihydropyridin-3-yl)-3,4-dihydroisoquinoline-2(1H)-carboxamide], the pIC50 in assay [1] (Homo sapiens, 22Rv1, 72 h) was > 6.00; in assay [2] (Homo sapiens, VCaP, 72 h) it was > 6.00.

Consider `CNC(=O)N1Cc2nc(C3CCOCC3)nc(N3CCCc4cc(-c5cnn(C)c5)c(C(F)F)cc43)c2C1` [Compound M001244], for which the pIC50 in assay [1] (Homo sapiens, 22Rv1, 72 h) is < 6.00; in assay [2] (Homo sapiens, VCaP, 72 h) it was < 6.00.

For the molecule `CC(=O)N1Cc2cc(C3CNC(=O)OC3)cc(N3CCCc4cc(-c5cnn(C)c5)c(C(F)F)cc43)c2C1` (stereo not drawn) [Compound M001246], the pIC50 in assay [1] (Homo sapiens, 22Rv1, 72 h) was < 6.00; in assay [2] (Homo sapiens, VCaP, 72 h), < 6.00.

`CC(=O)N1Cc2cc(C3CCN(CC(C)O)C(=O)C3)cc(N3CCCc4cc(-c5cnn(C)c5)c(C(F)F)cc43)c2C1` (stereo not drawn) [Compound M001249]: the pIC50 in assay [1] and in assay [2] was > 6.00 throughout.

Consider `CC(=O)N1Cc2cc(C3CCN(CC(F)(F)F)C(=O)C3)cc(N3CCCc4cc(-c5cnn(C)c5)c(C(F)F)cc43)c2C1` (stereo not drawn) [Compound M001252], for which the pIC50 in assay [1] (Homo sapiens, 22Rv1, 72 h) was > 6.00; in assay [2] (Homo sapiens, VCaP, 72 h) it was > 6.00.

In the case of `CNC(=O)N1CCc2cc(C3CCN(CC(F)(F)F)C(=O)C3)cc(N3CCCc4cc(-c5cnn(C)c5)c(C(F)F)cc43)c2C1` (stereo not drawn) [Compound M001253], the pIC50 is > 6.00 in assay [1] (Homo sapiens, 22Rv1, 72 h) and > 6.00 in assay [2] (Homo sapiens, VCaP, 72 h).

The values above are taken from patent US20240109868A1, “EP300/CBP MODULATOR, PREPARATION METHOD THEREFOR AND USE THEREOF” (Miracure Biotechnology Limited, priority 2022, published 2024).
